Read-outs that look alike come from different tables or passages of the source. Peptide text beside a SMILES is read from it. * marks the point of attachment. Dansyl = CN(C)c1cccc2c(S(=O)(=O)*)cccc12
Columns and labels:
Type in all cases: binding
[1] = target: T1, Nter-NPM1 D36A-E37A-E39A-E93A (Homo sapiens, UniProt P06748, D36A/E37A/E39A/E93A); test: Equilibrium fluorescence titration, Nter-NPM1 quadruple mutant (E37A); conditions: dansylated peptide 5 μM
T1 construct: inferred from pET28a NdeI/BamHI cloning and HisTrap purification) (N); made in house; host or cells: Escherichia coli BL21(DE3)
T1 sequence (P06748 16-123 D36A/E37A/E39A/E93A): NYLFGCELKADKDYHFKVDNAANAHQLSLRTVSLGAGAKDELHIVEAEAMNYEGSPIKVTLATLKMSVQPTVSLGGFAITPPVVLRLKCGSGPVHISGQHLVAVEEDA
Experimental: (§1) Nter-NPM1 mutants were obtained by site-directed mutagenesis using the Quickchange II Lightning Site-Directed Mutagenesis kit (Stratagene, La Jolla, CA, USA), following manufacturer’s instructions. Oligonucleotides used for PCR were obtained from Primm Biotech (Milan, Italy). Forward oligonucleotides used are reported in Supplementary Table 2.
(§2) All experiments were performed at 25 °C in sodium phosphate buffer 20 mM pH 7.2, or in sodium phosphate buffer 20 mM plus 100 mM NaCl pH 7.2 (which sets ionic strength to 150 mM), using a FluoroMax-4 spectrofluorometer (Jobin Yvon, Edison, NJ, USA), equipped with a water bath apparatus. Fbw7γ and CENP-W peptides, functionalized with a dansyl (5-dimetilamminonaftalen-1-sulphonyl) group at their N terminus, were purchased from JPT (Germany). Tat peptide was synthesized employing the solid phase method following standard Fmoc strategies and labeled with dansyl fluorophore at its N terminus. Crude product was purified by RP-HPLC applying a linear gradient of 0.1% TFA CH3CN in 0.1% TFA water from 5% to 65% over 12 min using a semi-preparative 2.2 × 5 cm C18 column at a flow rate of 20 ml/min. Purity and identity were confirmed by LC–MS analysis.
(§3) Titration experiments were conducted with an excitation wavelength of 330 nm while the fluorescence emission spectra were collected in the range between 350 and 650 nm. Titrations were performed at constant peptide concentration (5 μM) and varying protein concentrations (from 0 to 200/400 μM). Titrations were performed in triplicate and data, analyzed with the Graphpad Prism software (https://www.graphpad.com/scientific-software/prism/), were reported as dissociation constant±s.d.
(§4) Equilibrium binding curves were fitted to the standard quadratic equation: […]
(§5) where F is the observed fluorescence signal, n and [A]0 are the total concentration of non-varied and varied species, respectively, and KD is the equilibrium dissociation constant. B and C are constants taking into account the total fluorescence change and fluorescence at [A]0=0, respectively, and k is a term describing the slope of the curve at high protein concentration. Whenever possible, under pseudo first-order conditions, the equation 1 was simplified to: […]

Nter-NPM1 E39A-E93A = target: T2, Nter-NPM1 E39A-E93A (Homo sapiens, UniProt P06748, E39A/E93A); test: Equilibrium fluorescence titration, Nter-NPM1 E39A-E93A mutant; conditions: dansylated peptide 5 μM; sodium phosphate 20 mM pH 7.2, 25 °C; triplicate, ±s.d.
T2 construct: inferred from pET28a NdeI/BamHI cloning and HisTrap purification) (N); made in house; host or cells: Escherichia coli BL21(DE3)
T2 sequence (P06748 16-123 E39A/E93A): as the sequence (P06748 16-123 D36A/E37A/E39A/E93A) above, with A21D, A22E counted along it
Experimental: as §1
(§6) All experiments were performed at 25 °C in sodium phosphate buffer 20 mM pH 7.2, or in sodium phosphate buffer 20 mM plus 100 mM NaCl pH 7.2 (which sets ionic strength to 150 mM), using a FluoroMax-4 spectrofluorometer (Jobin Yvon, Edison, NJ, USA), equipped with a water bath apparatus. […]
as §3, with “Titrations were performed at constant peptide concentration (5 μM) and varying protein concentrations (from 0 to 200/400 μM).” left out, “constant±s.d. […]” for “constant±s.d.”
as §5, with “concentration.” for “concentration. Whenever possible, under pseudo first-order conditions, the equation 1 was simplified to:”

Nter-NPM1 D36A = target: T3, Nter-NPM1 D36A (Homo sapiens, UniProt P06748, D36A); test: Equilibrium fluorescence titration, Nter-NPM1 D36A mutant; conditions: dansylated peptide 5 μM; sodium phosphate 20 mM pH 7.2, 25 °C; triplicate, ±s.d.
T3 construct: inferred from pET28a NdeI/BamHI cloning and HisTrap purification) (N); made in house; host or cells: Escherichia coli BL21(DE3)
T3 sequence (P06748 16-123 D36A): as the sequence (P06748 16-123 D36A/E37A/E39A/E93A) above, with A22E, A24E, A78E counted along it
Experimental: as §1, §6
as §3, with “Titrations were performed at constant peptide concentration (5 μM) and varying protein concentrations (from 0 to 200/400 μM).” left out, “constant±s.d. […]” for “constant±s.d.”
as §5, with “concentration.” for “concentration. Whenever possible, under pseudo first-order conditions, the equation 1 was simplified to:”

Nter-NPM1 D36A-E93A = target: T4, Nter-NPM1 D36A-E93A (Homo sapiens, UniProt P06748, D36A/E93A); test: Equilibrium fluorescence titration, Nter-NPM1 D36A-E93A mutant; conditions: dansylated peptide 5 μM; sodium phosphate 20 mM pH 7.2, 25 °C; triplicate, ±s.d.
T4 construct: inferred from pET28a NdeI/BamHI cloning and HisTrap purification) (N); made in house; host or cells: Escherichia coli BL21(DE3)
T4 sequence (P06748 16-123 D36A/E93A): as the sequence (P06748 16-123 D36A/E37A/E39A/E93A) above, with A22E, A24E counted along it
Experimental: as §1, §6
as §3, with “Titrations were performed at constant peptide concentration (5 μM) and varying protein concentrations (from 0 to 200/400 μM).” left out, “constant±s.d. […]” for “constant±s.d.”
as §5, with “concentration.” for “concentration. Whenever possible, under pseudo first-order conditions, the equation 1 was simplified to:”

Nter-NPM1 E93A = target: T5, Nter-NPM1 E93A (Homo sapiens, UniProt P06748, E93A); test: Equilibrium fluorescence titration, Nter-NPM1 E93A mutant; conditions: dansylated peptide 5 μM; sodium phosphate 20 mM pH 7.2, 25 °C; triplicate, ±s.d.
T5 construct: inferred from pET28a NdeI/BamHI cloning and HisTrap purification) (N); made in house; host or cells: Escherichia coli BL21(DE3)
T5 sequence (P06748 16-123 E93A): as the sequence (P06748 16-123 D36A/E37A/E39A/E93A) above, with A21D, A22E, A24E counted along it
Experimental: as §1, §6
as §3, with “Titrations were performed at constant peptide concentration (5 μM) and varying protein concentrations (from 0 to 200/400 μM).” left out, “constant±s.d. […]” for “constant±s.d.”
as §5, with “concentration.” for “concentration. Whenever possible, under pseudo first-order conditions, the equation 1 was simplified to:”

Nter-NPM1 E37A = target: T6, Nter-NPM1 E37A (Homo sapiens, UniProt P06748, E37A); test: Equilibrium fluorescence titration, Nter-NPM1 E37A mutant; conditions: dansylated peptide 5 μM; sodium phosphate 20 mM pH 7.2, 25 °C; triplicate, ±s.d.
T6 construct: inferred from pET28a NdeI/BamHI cloning and HisTrap purification) (N); made in house; host or cells: Escherichia coli BL21(DE3)
T6 sequence (P06748 16-123 E37A): as the sequence (P06748 16-123 D36A/E37A/E39A/E93A) above, with A21D, A24E, A78E counted along it
Experimental: as §1, §6
as §3, with “Titrations were performed at constant peptide concentration (5 μM) and varying protein concentrations (from 0 to 200/400 μM).” left out, “constant±s.d. […]” for “constant±s.d.”
as §5, with “concentration.” for “concentration. Whenever possible, under pseudo first-order conditions, the equation 1 was simplified to:”

Nter-NPM1 D36A-E39A = target: T7, Nter-NPM1 D36A-E39A (Homo sapiens, UniProt P06748, D36A/E39A); test: Equilibrium fluorescence titration, Nter-NPM1 D36A-E39A mutant; conditions: dansylated peptide 5 μM; sodium phosphate 20 mM pH 7.2, 25 °C; triplicate, ±s.d.
T7 construct: inferred from pET28a NdeI/BamHI cloning and HisTrap purification) (N); made in house; host or cells: Escherichia coli BL21(DE3)
T7 sequence (P06748 16-123 D36A/E39A): as the sequence (P06748 16-123 D36A/E37A/E39A/E93A) above, with A22E, A78E counted along it
Experimental: as §1, §6
as §3, with “Titrations were performed at constant peptide concentration (5 μM) and varying protein concentrations (from 0 to 200/400 μM).” left out, “constant±s.d. […]” for “constant±s.d.”
as §5, with “concentration.” for “concentration. Whenever possible, under pseudo first-order conditions, the equation 1 was simplified to:”

[2] = target: T8, Nter-NPM1 D36A-E37A-E39A-E93A-E121A (Homo sapiens, UniProt P06748, D36A/E121A/E37A/E39A/E93A); test: Equilibrium fluorescence titration, Nter-NPM1 quintuple mutant; conditions: dansylated peptide 5 μM
T8 construct: inferred from pET28a NdeI/BamHI cloning and HisTrap purification) (N); made in house; host or cells: Escherichia coli BL21(DE3)
T8 sequence (P06748 16-123 D36A/E37A/E39A/E93A/E121A): as the sequence (P06748 16-123 D36A/E37A/E39A/E93A) above, with E106A counted along it
Experimental: as §1, §2, §3, §4, §5

Nter-NPM1 E121A = target: T9, Nter-NPM1 E121A (Homo sapiens, UniProt P06748, E121A); test: Equilibrium fluorescence titration, Nter-NPM1 E121A mutant; conditions: dansylated peptide 5 μM; sodium phosphate 20 mM pH 7.2, 25 °C; triplicate, ±s.d.
T9 construct: inferred from pET28a NdeI/BamHI cloning and HisTrap purification) (N); made in house; host or cells: Escherichia coli BL21(DE3)
T9 sequence (P06748 16-123 E121A): as the sequence (P06748 16-123 D36A/E37A/E39A/E93A) above, with A21D, A22E, A24E, A78E, E106A counted along it
Experimental: as §1, §6
as §3, with “Titrations were performed at constant peptide concentration (5 μM) and varying protein concentrations (from 0 to 200/400 μM).” left out, “constant±s.d. […]” for “constant±s.d.”
as §5, with “concentration.” for “concentration. Whenever possible, under pseudo first-order conditions, the equation 1 was simplified to:”

[3] = target: T10, Nter-NPM1 D36A-E39A-E93A-E121A (Homo sapiens, UniProt P06748, D36A/E121A/E39A/E93A); test: Equilibrium fluorescence titration, Nter-NPM1 quadruple mutant (E121A); conditions: dansylated peptide 5 μM; sodium phosphate 20 mM pH 7.2, 25 °C; triplicate, ±s.d.
T10 construct: inferred from pET28a NdeI/BamHI cloning and HisTrap purification) (N); made in house; host or cells: Escherichia coli BL21(DE3)
T10 sequence (P06748 16-123 D36A/E39A/E93A/E121A): as the sequence (P06748 16-123 D36A/E37A/E39A/E93A) above, with A22E, E106A counted along it
Experimental: as §1, §2
as §3, with “constant±s.d. […]” for “constant±s.d.”
as §5, with “concentration.” for “concentration. Whenever possible, under pseudo first-order conditions, the equation 1 was simplified to:”

[4] = target: T11, Nter-NPM1 (residues 16-123) (Homo sapiens, UniProt P06748); test: Equilibrium fluorescence titration of dansylated peptide with Nter-NPM1
T11 construct: inferred from pET28a NdeI/BamHI cloning and HisTrap purification) (N); made in house; host or cells: Escherichia coli BL21(DE3)
T11 sequence (P06748 16-123): as the sequence (P06748 16-123 D36A/E37A/E39A/E93A) above, with A21D, A22E, A24E, A78E counted along it
Experimental: as §2, §3, §4, §5

Nter-NPM1 E39A = target: T12, Nter-NPM1 E39A (Homo sapiens, UniProt P06748, E39A); test: Equilibrium fluorescence titration, Nter-NPM1 E39A mutant; conditions: dansylated peptide 5 μM; sodium phosphate 20 mM pH 7.2, 25 °C; triplicate, ±s.d.
T12 construct: inferred from pET28a NdeI/BamHI cloning and HisTrap purification) (N); made in house; host or cells: Escherichia coli BL21(DE3)
T12 sequence (P06748 16-123 E39A): as the sequence (P06748 16-123 D36A/E37A/E39A/E93A) above, with A21D, A22E, A78E counted along it
Experimental: as §1, §6
as §3, with “Titrations were performed at constant peptide concentration (5 μM) and varying protein concentrations (from 0 to 200/400 μM).” left out, “constant±s.d. […]” for “constant±s.d.”
as §5, with “concentration.” for “concentration. Whenever possible, under pseudo first-order conditions, the equation 1 was simplified to:”

Nter-NPM1 D36A-E39A-E93A = target: T13, Nter-NPM1 D36A-E39A-E93A (Homo sapiens, UniProt P06748, D36A/E39A/E93A); test: Equilibrium fluorescence titration, Nter-NPM1 triple mutant; conditions: dansylated peptide 5 μM
T13 construct: inferred from pET28a NdeI/BamHI cloning and HisTrap purification) (N); made in house; host or cells: Escherichia coli BL21(DE3)
T13 sequence (P06748 16-123 D36A/E39A/E93A): as the sequence (P06748 16-123 D36A/E37A/E39A/E93A) above, with A22E counted along it
Experimental: as §1, §2, §3, §4, §5

Kd ([1]; sodium phosphate 20 mM pH 7.2, 25 °C, triplicate, ±s.d., read-out: KD, D36A-E37A-E39A-E93A): 151 ± 20.5 µM
Kd ([1]; sodium phosphate 20 mM plus 100 mM NaCl pH 7.2 (ionic strength 150 mM), 25 °C, read-out: KD 100mM NaCl, D36A-E37A-E39A-E93A): 158 ± 12.3 µM
Kd (Nter-NPM1 E39A-E93A): 7.6 ± 1.9 µM
Kd (Nter-NPM1 D36A): 10.8 ± 2.6 µM
Kd (Nter-NPM1 D36A-E93A): 8.4 ± 1.5 µM
Kd (Nter-NPM1 E93A): 5 ± 1.6 µM
Kd (Nter-NPM1 E37A): 12.5 ± 1.4 µM
Kd (Nter-NPM1 D36A-E39A): 13.5 ± 2 µM
Kd ([2]; sodium phosphate 20 mM pH 7.2, 25 °C, triplicate, ±s.d.): 654 ± 46.9 µM
KD 100mM NaCl, D36A-E37A-E39A-E93A-E121A ([2]; sodium phosphate 20 mM plus 100 mM NaCl pH 7.2 (ionic strength 150 mM), 25 °C): No Interaction
Kd (Nter-NPM1 E121A): 13.3 ± 3.8 µM
Kd [3]: 224 ± 35.9 µM
Kd ([4]; SD, read-out: Nter-NPM1 KD): 3.2 ± 0.6 µM
Kd ([4]; wild type, sodium phosphate 20 mM plus 100 mM NaCl pH 7.2 (ionic strength 150 mM), 25 °C, dansylated peptide 5 μM, read-out: KD 100mM NaCl, Nter-NPM1): 20.6 ± 2.6 µM
Kd (Nter-NPM1 E39A): 6.2 ± 1.5 µM
Kd (Nter-NPM1 D36A-E39A-E93A; sodium phosphate 20 mM pH 7.2, 25 °C, triplicate, ±s.d., read-out: KD, D36A-E39A-E93A): 22 ± 3 µM
Kd (Nter-NPM1 D36A-E39A-E93A; sodium phosphate 20 mM plus 100 mM NaCl pH 7.2 (ionic strength 150 mM), 25 °C, read-out: KD 100mM NaCl, D36A-E39A-E93A): 66.8 ± 12.5 µM
SMILES: CSCC[C@H](NC(=O)[C@H](CCCNC(=N)N)NC(=O)[C@H](CCCNC(=N)N)NC(=O)[C@H](CCCNC(=N)N)NC(=O)[C@H](CS)NC(=O)[C@H](Cc1ccccc1)NC(=O)[C@@H]1CCCN1C(=O)[C@H](CC(C)C)NS(=O)(=O)c1cccc2c(N(C)C)cccc12)C(=O)N[C@@H](CCCCN)C(=O)N[C@@H](CCCNC(=N)N)C(=O)N[C@@H](CCCCN)C(=O)N[C@@H](CC(C)C)C(=O)N[C@@H](CC(=O)O)C(=O)N[C@@H](Cc1c[nH]cn1)C(=O)O [Fbw7γ*] (Dansyl-LPFCRRRMKRKLDH-OH)

Source: paper PMC5623904, “Structural investigation of nucleophosmin interaction with the tumor suppressor Fbw7γ” (Oncogenesis, 2017)
